This note sets out measurements from US8604055B2, “Substituted benzylamino quinolines as cholesterol ester-transfer protein inhibitors” (Dr. Reddy's Laboratories Ltd., priority 2004, dated 2013).

One data set has as its target T1, Recombinant CETP enzyme (Homo sapiens, UniProt P11597).
T1 construct: purchased Cardiovascular Targets
T1 sequence (P11597 18-493): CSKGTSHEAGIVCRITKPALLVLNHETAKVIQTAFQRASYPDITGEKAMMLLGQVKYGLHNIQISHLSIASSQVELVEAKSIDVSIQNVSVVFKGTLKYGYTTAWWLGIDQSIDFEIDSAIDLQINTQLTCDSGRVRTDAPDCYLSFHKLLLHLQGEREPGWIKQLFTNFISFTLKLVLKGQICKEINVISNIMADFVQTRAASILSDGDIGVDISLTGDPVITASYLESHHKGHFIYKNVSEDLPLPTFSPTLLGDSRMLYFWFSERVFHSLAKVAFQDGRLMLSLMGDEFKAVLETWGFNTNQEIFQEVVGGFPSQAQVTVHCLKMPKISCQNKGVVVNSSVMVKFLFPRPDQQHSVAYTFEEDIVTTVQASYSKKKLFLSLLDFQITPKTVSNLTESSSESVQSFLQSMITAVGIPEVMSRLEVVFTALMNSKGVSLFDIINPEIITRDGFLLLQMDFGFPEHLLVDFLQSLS
In words: In vitro fluorescence-based CETP inhibition assay (BODIPY-CE transfer from donor to acceptor microemulsions). Type of data set: biochemical. The conditions noted are these: recombinant CETP 0.14 ng/μl; transfer of fluorescent cholesteryl ester monitored over 2 hours; vs DMSO controls. On the procedure: An in vitro fluorescence-based assay to identify CETP inhibitors was developed from modifications of the protocols outlined in Bisgaier et al., J Lipid Res., 34(9): 1625-34 (1993) and Epps et al., Chem Phys Lipids., 77(1): 51-63 (1995). Acceptor and donor lipid microemulsions were prepared according to Bisgaier et al., 1993, except that the buffer was prepared with 0.67 ug/mL human HDL (Calbiochem). Donor microemulsions contained the fluorescent cholesteryl ester analog BODIPY-CE (Molecular Probes), characterized by excitation and emission maxima at 503 nm and 518 nm, respectively. The CETP-mediated transfer of fluorescent cholesteryl ester to acceptor particles was monitored over a 2-hour time period using the FAM filter set (excitation 492 nm, emission 516 nm) in an MX3000P fluorescent plate reader (Stratagene). Recombinant CETP enzyme (Cardiovascular Targets) was used at 0.14 ng/μl, final concentration, to achieve lipid transfer. CETP inhibition by compounds was compared to DMSO controlsand graphed as a percentage of the control CETP activity over 2 hours. The IC50 curves for CETP inhibition were generated from the activity profiles. Active compounds were also tested for CETP inhibition as above, but in the presence of 3% human serum albumin, fraction V (Calbiochem).

Each structure is given as a SMILES string.

One may read the IC50 as the concentration that gives 50% inhibition. By melting point is commonly meant the temperature, or range, at which the solid turns liquid. For the compound `CCOC(=N)N(Cc1cc(C(F)(F)F)cc(C(F)(F)F)c1)Cc1cc2ccccc2nc1N(CC)CC1CCCC1` [Example 61], the melting point was 158 to 160 °C. The concentration for half-maximal inhibition (IC50) at Recombinant CETP enzyme was at most 5000 nM.

For `CCN(CC1CCCC1)c1nc2ccccc2cc1CN(Cc1cc(C(F)(F)F)cc(C(F)(F)F)c1)c1nnnn1C` [Example 53, (3-{[(3,5-bis-trifluoromethyl-benzyl)-(1-methyl-1H-tetrazol-5-yl)-amino]-methyl}-quinolin-2-yl)-cyclopentylmethyl-ethyl-amine], the melting point is 110 °C. Besides, the half-inhibitory concentration (IC50) at Recombinant CETP enzyme was at most 5000 nM.

On to `CCC[S+]([O-])c1nc2c(C)cccc2cc1CN(Cc1cc(C(F)(F)F)cc(C(F)(F)F)c1)C(=O)OCC` (centres unmarked) [Example 137, (3,5-bis-trifluoromethyl-benzyl)-[8-methyl-2-(propane-1-sulfinyl)-quinolin-3-ylmethyl]-carbamic acid ethyl ester], for which the melting point was found to be 86 °C.

`CCN(CC1CCCC1)c1nc2ccccc2cc1CN(Cc1cc(C(F)(F)F)cc(C(F)(F)F)c1)C(N)=S` [Example 62, 1-(3,5-bis-trifluoromethyl-benzyl)-1-[2-(cyclopentylmethyl-ethyl-amino)-quinolin-3-ylmethyl]-thiourea] registered a melting point of 98 °C.

As for `CCN(CC1CCC1)c1nc2c(cnn2CC)cc1CN(Cc1cc(C(F)(F)F)cc(C(F)(F)F)c1)c1nnn(C)n1` [Example 15, (5-{[(3,5-bis-trifluoromethyl-benzyl)-(2-methyl-2H-tetrazol-5-yl)-amino]-methyl}-1-ethyl-1H-pyrazolo[3,4-b]-yridin-6-yl)-cyclobutylmethyl-ethyl-amine], the melting point fell in the range of 76 to 77 °C. In addition, the half-maximal inhibitory concentration (IC50) at Recombinant CETP enzyme is at most 1000 nM.

`CCN(CC1CCCC1)c1nc2ccccc2cc1CN(Cc1cc(C(F)(F)F)cc(C(F)(F)F)c1)c1nnc(C)o1` [Example 58, (3-{[(3,5-bis-trifluoromethyl-benzyl)-(5-methyl-[1,3,4]oxodiazol-2-yl)-amino]-methyl)-quinolin-2-yl)-cyclopentylmethyl-ethyl-amine] showed a melting point of 126 to 127 °C. Further, the concentration for half-maximal inhibition (IC50) on Recombinant CETP enzyme is at most 5000 nM.

`CCCSc1nc2c(C)cccc2cc1CN(Cc1cc(C(F)(F)F)cc(C(F)(F)F)c1)C(=O)OCC` [Example 135, (3,5-bis-trifluoromethyl-benzyl)-(8-methyl-2-propylsulfanyl-quinolin-3-ylmethyl)-carbamic acid ethyl ester] gave a melting point of 42 °C.

The compound `CCN(CC1CCCC1)c1nc2ccccc2cc1CN(Cc1cc(C(F)(F)F)cc(C(F)(F)F)c1)c1nnn(C)n1` [Example 52] gave a melting point of 97 °C. For the same compound, the IC50 on Recombinant CETP enzyme is at most 1000 nM.

Compound `CCCS(=O)(=O)c1nc2c(C)cccc2cc1CN(Cc1cc(C(F)(F)F)cc(C(F)(F)F)c1)C(=O)OCC` [Example 136, (3,5-bis-trifluoromethyl-benzyl)-[8-methyl-2-(propane-1-sulfonyl)-quinolin-3-ylmethyl]-carbamic acid ethyl ester] returned a melting point of 98 °C.

For `Cc1cccc2cc(CN(Cc3cc(C(F)(F)F)cc(C(F)(F)F)c3)c3ncc(N4CCOCC4)cn3)c(N(CC3CC3)CC3CC3)nc12` [Example 106, (3-{[(3,5-bis-trifluoromethyl-benzyl)-(5-morpholin-4-yl-pyrimidin-2-yl)-amino]-methyl}-8-methyl-quinolin-2-yl)-bis-cyclopropylmethyl-amine], the melting point fell in the range of 123 to 124 °C.

Take `CCN(CC1CCC1)c1nc2c(cc1CN(Cc1cc(C(F)(F)F)cc(C(F)(F)F)c1)c1nnn(C)n1)c(C)nn2C` [Example 1, (5-{[(3,5-bis-trifluoromethyl-benzyl)-(2-methyl-2H-tetrazole-5-yl)-amino]-methyl}-1,3-dimethyl-1H-pyrazolo[3,4-b]pyridin-6-yl)-cyclobutylmethyl-ethyl-amine]: the IC50 on Recombinant CETP enzyme was at most 1000 nM.

`CCN(CC1CCCC1)c1nc2c(cc1CN(Cc1cc(C(F)(F)F)cc(C(F)(F)F)c1)C(=O)OC)CCC2` [Example 75, (3,5-bis-trifluoromethyl-benzyl)-[2-(cyclopentylmethyl-ethyl-amino)-6,7-dihydro-5H-[1]pyridin-3-ylmethyl]-carbamic acid methyl ester]: at Recombinant CETP enzyme, the IC50 was at most 5000 nM.

With `CCN(CC1CC1)c1nc2ccccc2cc1CN(Cc1cc(C(F)(F)F)cc(C(F)(F)F)c1)C(=O)OC` [Example 44, (3,5-bis-trifluoromethyl-benzyl)-[2-(cyclopropylmethyl-ethyl-amino)-quinolin-3-ylmethyl]-carbamic acid methyl ester], the IC50 at Recombinant CETP enzyme was at most 5000 nM.

Turning to `CCN(CC1CCCC1)c1nc2c(cc1CN(Cc1cc(C(F)(F)F)cc(C(F)(F)F)c1)c1nnn(C)n1)CCC2` [Example 76, (3-{[(3,5-bis-trifluoromethyl-benzyl)-(2-methyl-2H-tetrazole-5-yl)-amino]-methyl}-,6,7-dihydro-5H-[1]pyridine-2-yl)-cyclopentylmethyl-ethyl-amine], the IC50 at Recombinant CETP enzyme was at most 1000 nM.

As for `CCN(CC1CCCC1)c1nc2ccccc2cc1CN(Cc1cc(C(F)(F)F)cc(C(F)(F)F)c1)C(=S)SC` [Example 48, (3,5-bis-trifluoromethyl-benzyl)[2-(cyclopentylmethyl-ethyl-amino)-quinolin-3-ylmethyl]-dithiocarbamic acid methyl ester], the IC50 at Recombinant CETP enzyme was at most 5000 nM.

Take `CCN(c1nc2c(cc1CN(Cc1cc(C(F)(F)F)cc(C(F)(F)F)c1)c1nnn(C)n1)c(C)nn2C)C(C)C` [Example 7, (5-{[(3,5-bis-trifluoromethyl-benzyl)-(2-methyl-2H-tetrazole-5-yl)-amino]-methyl}-1,3-dimethyl-1H-pyrazolo[3,4-b]pyridin-6-yl)-ethyl-isopropyl-amine]: the IC50 on Recombinant CETP enzyme was at most 1000 nM.

On to `CCOC(=O)c1c(CN(Cc2cc(C(F)(F)F)cc(C(F)(F)F)c2)c2nnn(C)n2)c2ccccc2n1C` [Example 125, 3-{[(3,5-bis-trifluoromethyl-benzyl)-(2-methyl-2H-tetrazol-5-yl)-amino]-methyl}-1-methyl-1H-indole-2-carboxylic acid ethyl ester], for which the melting point came to 83 °C.

Take `Cc1cc(N(Cc2cc(C(F)(F)F)cc(C(F)(F)F)c2)Cc2cc3c(C)nn(C)c3nc2N(CC2CC2)CC2CC2)no1` [Example 11, (5-{[(3,5-bis-trifluoromethyl-benzyl)-(5-methyl-isoxazol-3-yl)-amino]-methyl}-1,3-dimethyl-1H-pyrazolo[3,4-b]pyridin-6-yl)-bis-cyclopropylmethyl-amine]: the IC50 on Recombinant CETP enzyme is at most 1000 nM.

Consider `CCCCN(CC)c1nc2ccccc2cc1CN(Cc1cc(C(F)(F)F)cc(C(F)(F)F)c1)C(=O)OCC` [Example 41, (3,5-bis-trifluoromethyl-benzyl)-[2-(butyl-ethyl-amino)-quinolin-3-ylmethyl]-carbamic acid ethyl ester], for which the IC50 on Recombinant CETP enzyme was at most 5000 nM.

With `CCN(CC1CCCC1)c1nc2ccc(C)cc2cc1CN(Cc1cc(C(F)(F)F)cc(C(F)(F)F)c1)C(=O)OC` [Example 46, (3,5-bis-trifluoromethyl-benzyl)-[2-(cyclopentylmethyl-ethyl-amino)-6-methyl-quinolin-3-ylmethyl]-carbamic acid methyl ester], the IC50 on Recombinant CETP enzyme was at most 5000 nM.

On to `Cn1nnc(N(Cc2cc(C(F)(F)F)cc(C(F)(F)F)c2)Cc2cc3cnn(C)c3nc2N(CC2CC2)CC2CC2)n1` [Example 13, (5-{[(3,5-bis-trifluoromethyl-benzyl)-(2-methyl-2H-tetrazol-5-yl)-amino]-methyl}-1-methyl-1H-pyrazolo[3,4-b]pyridin-6-yl)-bis-cyclopropylmethyl-amine], for which the IC50 at Recombinant CETP enzyme was at most 1000 nM.

As to `CCN(CC1CCCC1)c1nc2ccccc2cc1CN(Cc1cc(C(F)(F)F)cc(C(F)(F)F)c1)c1nc(C)cs1` [Example 63], the IC50 at Recombinant CETP enzyme was at most 5000 nM.

Regarding `CCN(CC1CCCC1)c1nc2c(cc1CN(Cc1cc(C(F)(F)F)cc(C(F)(F)F)c1)c1nnc(C)o1)CCCC2` [Example 78, (3-{[3,5-bis-trifluoromethyl-benzyl)-(5-methyl-[1,3,4oxadiazol-2-yl)-amino]-methyl}-5,6,7,8-tetrahydroquinoline-2-yl)-cyclopentylmethyl-ethyl-amine], on Recombinant CETP enzyme, the IC50 was at most 1000 nM.

On to `CCN(CC1CCC1)c1nc2ccccc2cc1CN(Cc1cc(C(F)(F)F)cc(C(F)(F)F)c1)c1cc(C)on1` [Example 65, (3-{[3,5-bis-trifluoromethyl-benzyl-(5-methyl-isoxazol-3-yl)-amino]-methyl}-quinolin-2-yl)-cyclobutylmethyl-ethyl-amine], for which the IC50 at Recombinant CETP enzyme was at most 1000 nM.
